Results from patent publication US6506708B1, “3-(heterocyclyl)-benzoylpyrazole-derivatives” (BASF Aktiengesellschaft, priority 1998, dated 2003).

Columns and labels:
green foxtail = experiment: greenhouse post-emergence herbicidal test; assay type: in vivo, Setaria eiridis; conditions: application rates of 0.25 or 0.125 kg/ha
Excerpt: (§1) The seeds of the test plants were sown separately for each species. For the post-emergence treatment, the test plants were first grown to a height of 3 to 15 cm, depending on the plant habit, and only then treated with the active compounds which had been suspended or emulsified in water. The test plants were for this purpose either sown directly and grown in the same containers, or they were first grown separately as seedlings and transplanted into the test containers a few days prior to treatment. The application rate for the post-emergence treatment was 0.25, 0.125 or 0.0625 kg of a.s. (active substance)/ha. Depending on the species, the plants were kept at 10-25° C. or […] The test period extended over 2 to 4 weeks. During this time, the plants were tended, and their response to the individual treatments was evaluated. The evaluation was carried out using a scale from 0 to 100. 100 means no emergence of the plants, or complete destruction of at least the aerial parts and 0 means no damage, or normal course of growth. The plants used in the greenhouse experiments were of the following species: [table]

lady's-thumb = experiment: greenhouse post-emergence herbicidal test; assay type: in vivo, Polygonum persicaria; conditions: application rates of 0.25 or 0.125 kg/ha
Excerpt: as §1

black nightshade = experiment: greenhouse post-emergence herbicidal test; assay type: in vivo, Solanum nigrum; conditions: application rates of 0.25 or 0.125 kg/ha
Excerpt: as §1

lamb's-quarters = experiment: greenhouse post-emergence herbicidal test; assay type: in vivo, Chenopodium album; conditions: application rates of 0.25 or 0.125 kg/ha
Excerpt: as §1

barnyard grass = experiment: greenhouse post-emergence herbicidal test; assay type: in vivo, Echinochloa crus-galli; conditions: application rates of 0.25 or 0.125 kg/ha
Excerpt: as §1

Row | melting point | SMILES | further results
1 | 198 to 200 °C | CC(C)(C)n1ncc(C(=O)c2ccc(S(C)(=O)=O)c(C3=NOCC3)c2Cl)c1O [Compound 2.1, 4-[2-Chloro-3-(4,5-dihydroisoxazol-3-yl)-4-methylsulfonylbenzoyl]-5-hydroxy-1-(1,1-dimethyl-1-ethyl)-1H-pyrazole] | 
2 | 210 to 215 °C | CC(C)n1ncc(C(=O)c2ccc(S(C)(=O)=O)c(C3=NOCC3)c2Cl)c1O [Compound 2.2] | post-emergence herbicidal action against green foxtail (green foxtail): very good post-emergence action; post-emergence herbicidal action against lady's-thumb (lady's-thumb): very good post-emergence action; post-emergence herbicidal action against black nightshade (black nightshade): very good post-emergence action; post-emergence herbicidal action against lamb's-quarters (lamb's-quarters): very good post-emergence action; post-emergence herbicidal action against barnyard grass (barnyard grass): very good post-emergence action
3 | 175 to 180 °C | CC(C)Oc1c(C(=O)c2ccc(S(C)(=O)=O)c(C3=NOCC3)c2Cl)cnn1C(C)C [Compound 2.3] | 
4 | 150 to 155 °C | CCOc1c(C(=O)c2ccc(S(C)(=O)=O)c(C3=NOCC3)c2Cl)cnn1C(C)C [Compound 2.4] | 
5 | 185 to 190 °C | COc1c(C(=O)c2ccc(S(C)(=O)=O)c(C3=NOCC3)c2Cl)cnn1C(C)C [Compound 2.5] | 
6 | 150 to 155 °C | CC(C)C(C)n1ncc(C(=O)c2ccc(S(C)(=O)=O)c(C3=NOCC3)c2Cl)c1O (stereo not drawn) [Compound 2.9] | 
7 | 125 to 130 °C | CC(C)Oc1c(C(=O)c2ccc(S(C)(=O)=O)c(C3=NOCC3)c2Cl)cnn1C(C)C(C)C (stereo not drawn) [Compound 2.10] | 
8 | 154 to 156 °C | COc1c(C(=O)c2cnn(C(C)C)c2O)ccc(S(C)(=O)=O)c1C1=NOCC1 [Compound 2.13] | 
9 | 200 to 205 °C | CC(C)C(C(C)C)n1ncc(C(=O)c2ccc(S(C)(=O)=O)c(C3=NOCC3)c2Cl)c1O [Compound 2.15] | 
10 | 65 to 70 °C | COc1c(C(=O)c2ccc(S(C)(=O)=O)c(C3=NOCC3)c2Cl)cnn1C(C(C)C)C(C)C [Compound 2.16] | 
